Reference: US7528115B2, “Carbonate and carbamate prodrugs of thiazolo[4,5-d]pyrimidines” (Anadys Pharmaceuticals, Inc., priority 2006, dated 2009)

Assay: Animal PK: oral availability of 53b in cynomolgus monkeys after dosing of Formula I prodrugs
Assay type: in vivo
Settings: 53b dosed IV
Description: The ability of prodrugs of the present invention to deliver 53a or 53b to the systemic circulation after oral dosing was assessed by methods well known in the art. For Table 1, each test compound was formulated into a solution for oral dosing by dissolving the compound in either an aqueous buffer such as PBS at pH 3 or pH 7 (in a solution of 100% propylene glycol), or in a solution containing a solubilizer such as Cremophor EL, Tween80, or PEG400. The solution of the compound was dosed by oral gavage to cynomolgus monkeys, generally using a group of four animals for each experiment. Plasma samples were collected from the animals at several time points (usually, from 6 to 12 time points were used) within 24 hours. The plasma samples were frozen quickly after collection, and thawed immediately before sample preparation for bioanalysis. […]
Calibration standards were prepared by serial dilution of an initial concentrated standard of the analyte with either animal plasma or cell culture media. […] The acceptance of the calibration curves was based on the accuracy of the back-calculated standard concentrations. A standard was accepted if the accuracy was within 15% for all the standards, except for the lower limit of quantitation for which 20% was applied. The fitted calibration curve was used to calculate the quantity of analyte in samples. […]

FPO (10 mg/kg (reference for the ratio)): 1
AUC(0-inf) (cynomolgus monkey, plasma, 10 mg/kg, cynomolgus monkeys, mean of all individual AUC(0-inf) values): 15200 ng·h/mL
Compound: Nc1nc2c(sc(=O)n2C2O[C@H](CO)[C@H](O)[C@H]2O)c(=O)[nH]1 (some centres unmarked) [Compound 53b]
